Measurements as given in patent US11998767B2, “Hand sanitizers with improved aesthetics and skin-conditioning to encourage compliance with hand hygiene guidelines” (GOJO Industries, Inc., priority 2014, dated 2024).

Columns and labels:
IL-8 = IL-8 ELISA, PMA-induced IL-8 in human dermal keratinocytes; format: cell-based; details: niacinamide in cell culture medium, co-treated with PMA; amount (wt. %) differs per example; Control A medium 100%, Control B PMA 0.0%
Source text: Interleukin 8 (IL-8) is a chemokine and proinflammatory cytokine produced by macrophages and other cell types such as epithelial cells. It is secreted from keratinocytes in skin in response to inflammatory stimuli. IL-8 is secreted and is an important mediator of the immune reaction in the innate immune system response. IL-8 overexpressed is a biomarker of skin irritation. […] No irritation is expected, and therefore Control A provides a baseline. […] Decreased 11-8 expression reflects the ingredient's anti-irritation activity. In order to carry out the test method, an assay kit was employed that was obtained from R&D Systems: Human CXCL8/IL-8 Duoset ELISA Development Kit. The following steps were followed: 1. Coat EIA high binding 96-well plate with IL-8 capture antibody overnight at room temperature. 2. Prepare all reagents, standard dilutions, and samples. 3. Wash the coated plate with 350 μL/well of washing buffer 4 times, then adding 300 μL/well of blocking solution incubating 1 hour at room temperature. 4. Repeat washing step with 350 μL/well of wash buffer (4 times). 5. Add 100 μL, of Standard, control, or sample to each well. Cover with a plate sealer, and incubate at room temperature for 2 hours. 6. Aspirate each well and wash, repeating the process 3 times for a total of 4 washes. 7. Add 100 μL, of detection IL-8 antibody to each well. Cover with a new plate sealer, and incubate at room temperature for 2 hours. 8. Aspirate and wash 4 times. 9. Add 100 μL, Biotin-Strepavidin conjugate to each well, incubating 20 minutes at room temperature. 10. Aspirate and wash 4 times. 11. Add 100 μL, substrate Solution to each well. Incubate at room temperature for 20 minutes, making sure to protect the wells from the light. 12. Add 50 μL, of Stop Solution to each well. Data collected—using a colorimeter, absorbance was measured at 450 nanometers (nm) within 30 minutes. Wavelength correction was set to 570 nm.

[1] = system: human dermal keratinocytes; experiment: MTT assay, cell viability of PMA-treated keratinocytes; format: cell-based; details: co-treated with PMA, amount (wt. %) differs per example, Control A medium 100%
Source text: The MTT assay is a colorimetric assay for assessing cell viability, cell proliferation, and/or cytotoxicity. NAD(P)H-dependent cellular oxidoreductase enzymes may, under defined conditions, reflect the number of viable cells present. These enzymes are capable of reducing the tetrazolium dye MTT 3-(4,5-dimethylthiazol-2-yl)-2,5-diphenyltetrazolium bromide to insoluble formazan, which has a purple color. MTT assay can also be used to measure cytotoxicity (loss of viable cells) or cytostatic activity (shift from proliferative to resting status) of potential medicinal agents and toxic materials.
Controls A and B described above for the IL-8 Assay were also employed in this test. The mitigating effect of the test samples on the effect of Control B on the keratinocytes was measured. More specifically, while Control B has a negative effect on cell viability, cell proliferation, and/or cytotoxicity, this mitigation of this negative effect was determined by measuring the reduction of MTT.
The following steps were followed: Once the liquid was removed from the wells for the IL-8 Assay described above, 100 μl/well of 0.5 mg/ml of MTT in phenol red-free DMEM (cell culture medium) was added into each of the 96-well plates. After incubating 1 hour at 37° C., all liquid was removed (MTT solution) from the wells of the culture plate. Then 100 μl of DMSO was added to each well to completely dissolve the purple product. Absorption was measured using a plate reader at 550 nm wavelength.

TNF-α = TNF-α ELISA, as IL-8 method, PMA-treated human dermal keratinocytes; format: cell-based; details: niacinamide in cell culture medium, co-treated with PMA; amount (wt. %) differs per example; Control A medium 100%, Control B PMA 0.0%
Source text: For Control A, human dermal keratinocytes are left untreated. No irritation is expected, and therefore Control A provides a baseline. For Control B, IL-8 is induced in human dermal keratinocytes by applying phorbol 12-myristate 13-acetate (PMA). For all other samples, the human dermal keratinocytes are co-treated with PMA and a composition containing the ingredient of interest. Decreased 11-8 expression reflects the ingredient's anti-irritation activity.
The following steps were followed: 1. Coat EIA high binding 96-well plate with IL-8 capture antibody overnight at room temperature. 2. Prepare all reagents, standard dilutions, and samples. 3. Wash the coated plate with 350 μL/well of washing buffer 4 times, then adding 300 μL/well of blocking solution incubating 1 hour at room temperature. 4. Repeat washing step with 350 μL/well of wash buffer (4 times). 5. Add 100 μL, of Standard, control, or sample to each well. Cover with a plate sealer, and incubate at room temperature for 2 hours. 6. Aspirate each well and wash, repeating the process 3 times for a total of 4 washes. 7. Add 100 μL, of detection IL-8 antibody to each well. Cover with a new plate sealer, and incubate at room temperature for 2 hours. 8. Aspirate and wash 4 times. 9. Add 100 μL, Biotin-Strepavidin conjugate to each well, incubating 20 minutes at room temperature. 10. Aspirate and wash 4 times. 11. Add 100 μL, substrate Solution to each well. Incubate at room temperature for 20 minutes, making sure to protect the wells from the light. 12. Add 50 μL, of Stop Solution to each well. Data collected—using a colorimeter, absorbance was measured at 450 nanometers (nm) within 30 minutes. Wavelength correction was set to 570 nm.
Samples were tested similarly to the method described above, except that TNF-α was used instead of IL-8.

Involucrin = experiment: Skin barrier biomarker gene expression, real-time RT-PCR, keratinocyte monolayer; format: cell-based, human; details: gene expression level, keratinocytes treated 24 hours; Control C KGM 100%; concentration differs per example
Description: (§1) An in vitro model was employed, using monolayer human dermal keratinocytes culture (KGM). Two controls were tested: the medium and inflammatory cytokines interleukin (IL-1b).
(§2) Skin Barrier: • Biomarkers: ABCA12, Involucrin, PPARδ • Using different concentration of ingredients to treat the keratinocyte for 24 hours • Collect the cells and prepare total RNA from the treated cells • Using Real-time RT-PCT to detect different barrier function related biomarker's gene expression level • Comparative Benchmark: Vitamin D3 (cholecalciferol) in three different concentrations
Involucrin is a protein component of human skin. It's a biomarker for keratinocyte differentiation. In binding the protein loricrin, involucrin contributes to the formation of a cell envelope that protects corneocytes in the skin stratum corneum. The higher expression, the better skin barrier function is.

PPARδ = experiment: as above; format: cell-based, human; details: gene expression level, keratinocytes treated 24 hours; Control C KGM 100%; concentration differs per example
Description: as §1, §2
PPARδ is Peroxisome proliferator-activated receptor, also known as NR1C2. It is a nuclear receptor that in humans is encoded by the PPARD gene. […] Generally, the higher expression, the better skin barrier function is.

ABCA12 = experiment: as above; format: cell-based, human; details: gene expression level, keratinocytes treated 24 hours; Control C KGM 100%; concentration differs per example
Description: as §1, §2
ABCA12 is also known as ATP-binding cassette transporter 12. It is a protein that in humans is encoded by the ABCA12 gene. The ABCA12 gene is active in some types of skin cells. The ABCA12 protein appears to be essential for normal development of the skin, which provides a barrier between the body and its surrounding environment. It plays an important role in transporting lipids (free fat acids) in cells that make up the outermost layer of skin (the epidermis). Generally, the higher expression, the better skin barrier function is.

NC(=O)c1cccnc1 [Example 17, Niacinamide]
IL-8 Inhibition (%) (IL-8): 16.53%

NC(=O)c1cccnc1 [Example 30, Niacinamide]
Cell Viability (%) ([1]; niacinamide series): 95%

NC(=O)c1cccnc1 [Example 25, Niacinamide]
TNF-α Inhibition (%) (TNF-α): 28.6%

NC(=O)c1cccnc1 [Example 21, Niacinamide]
IL-8 Inhibition (%) (IL-8): 33.20%

NC(=O)c1cccnc1 [Example 27, Niacinamide]
TNF-α Inhibition (%) (TNF-α): 45.1%

NC(=O)c1cccnc1 [Example 19, Niacinamide]
IL-8 Inhibition (%) (IL-8): 20.86%

NC(=O)c1cccnc1 [Example 24, Niacinamide]
TNF-α Inhibition (%) (TNF-α): 29.6%

NC(=O)c1cccnc1 [Example 31, Niacinamide]
Cell Viability (%) ([1]; niacinamide series): 99%

NC(=O)c1cccnc1 [Example 38, Niacinamide]
Involucrin (Involucrin): 1656% | PPARδ (PPARδ): 863% | ABCA12 (%) (ABCA12): 499%

NC(=O)c1cccnc1 [Example 28, Niacinamide]
TNF-α Inhibition (%) (TNF-α): 52.7%

NC(=O)c1cccnc1 [Example 22, Niacinamide]
IL-8 Inhibition (%) (IL-8): 32.04%

NC(=O)c1cccnc1 [Example 37, Niacinamide]
Involucrin (Involucrin): 1589% | PPARδ (PPARδ): 378% | ABCA12 (%) (ABCA12): 447%

NC(=O)c1cccnc1 [Example 23, Niacinamide]
TNF-α Inhibition (%) (TNF-α): 28.2%

NC(=O)c1cccnc1 [Example 32, Niacinamide]
Cell Viability (%) ([1]; niacinamide series): 87%

NC(=O)c1cccnc1 [Example 20, Niacinamide]
IL-8 Inhibition (%) (IL-8): 28.85%

NC(=O)c1cccnc1 [Example 16, Niacinamide]
IL-8 Inhibition (%) (IL-8): 0.0%

CCCCCCCCCCCCCC(=O)O[C@@H]1[C@@H](C)[C@@]2(O)[C@@H](C=C(CO)C[C@]3(O)C(=O)C(C)=C[C@@H]23)[C@@H]2C(C)(C)[C@]12OC(C)=O [Control B, phorbol 12-myristate 13-acetate, reference compound]
Cell Viability (%) ([1]; avenanthramide series): 95% | Cell Viability (%) ([1]; niacinamide series): 95%

NC(=O)c1cccnc1 [Example 34, Niacinamide]
Involucrin (Involucrin): 192% | PPARδ (PPARδ): 88% | ABCA12 (%) (ABCA12): 120%

NC(=O)c1cccnc1 [Example 33, Niacinamide]
Involucrin (Involucrin): 156% | PPARδ (PPARδ): 82% | ABCA12 (%) (ABCA12): 41%

NC(=O)c1cccnc1 [Example 35, Niacinamide]
Involucrin (Involucrin): 441% | PPARδ (PPARδ): 136% | ABCA12 (%) (ABCA12): 192%

NC(=O)c1cccnc1 [Example 29, Niacinamide]
Cell Viability (%) ([1]; niacinamide series): 97%

NC(=O)c1cccnc1 [Example 36, Niacinamide]
Involucrin (Involucrin): 817% | PPARδ (PPARδ): 164% | ABCA12 (%) (ABCA12): 806%

C=C1CC[C@H](O)C/C1=C/C=C1\CCC[C@]2(C)[C@@H]([C@H](C)CCCC(C)C)CC[C@@H]12 [Comparative 2, Vitamin D3 (cholecalciferol), reference compound]
Involucrin (Involucrin): 208% | PPARδ (PPARδ): 334% | ABCA12 (%) (ABCA12): 45%

NC(=O)c1cccnc1 [Example 18, Niacinamide]
IL-8 Inhibition (%) (IL-8): 16.64%

C=C1CC[C@H](O)C/C1=C/C=C1\CCC[C@]2(C)[C@@H]([C@H](C)CCCC(C)C)CC[C@@H]12 [Comparative 3, Vitamin D3 (cholecalciferol), reference compound]
Involucrin (Involucrin): 406% | PPARδ (PPARδ): 238% | ABCA12 (%) (ABCA12): 42%

C=C1CC[C@H](O)C/C1=C/C=C1\CCC[C@]2(C)[C@@H]([C@H](C)CCCC(C)C)CC[C@@H]12 [Comparative 1, Vitamin D3 (cholecalciferol), reference compound]
Involucrin (Involucrin): 384% | PPARδ (PPARδ): 752% | ABCA12 (%) (ABCA12): 58%

NC(=O)c1cccnc1 [Example 26, Niacinamide]
TNF-α Inhibition (%) (TNF-α): 45.6%
